Laboratory results as given in patent publication US20220387451A1, “AMORPHOUS PHARMACEUTICAL COMPOSITIONS OF ABIRATERONE ACETATE” (SUVEN LIFE SCIENCES LIMITED, priority 2019, published 2022).

Key:
[1] = Excretion after an oral dose of abiraterone acetate (literature); assay type: in vivo; conditions: feces plus urine
Text: Due to highly lipophilic nature and poor aqueous solubility in the gastrointestinal tract, the oral bioavailability of abiraterone acetate is limited. After an oral dose of abiraterone acetate, 88% of the administered drug gets excreted unchanged through feces, and another 5% is excreted in the urine (Ryan C J et al., J ClinOncol. 2010; 28(9):1481-1488). Therefore, >90% of the administered drug gets excreted and is not used for its intended treatment. […] As a result, Zytiga® must be taken on an empty stomach with water at least […] a meal. There is a need for developing new pharmaceutical compositions for abiraterone acetate that improve bioavailability in the fasted state to in turn reduce the food effect and overall variability in absorption.

[2] = after an oral dose; cited from earlier work

administered drug excreted [1]: > 90%
Compound: CC(=O)O[C@H]1CC[C@@]2(C)C(=CC[C@@H]3[C@@H]2CC[C@]2(C)C(c4cccnc4)=CC[C@@H]32)C1 [Abiraterone acetate]
administered drug excreted in the urine [2]: 5%
administered drug excreted unchanged through feces [2]: 88%
